Where “and” joins values, the source holds several entries; their conditions need not be identical. Equal entries are not always repeated.
What was measured:
[1] = Acute intramuscular toxicity (LD50) in uninfected mice; conditions: mouse, in vivo, im, read-out: Approximate Acute Intramuscular LD50
Excerpt: Approximate Acute Intramuscular LD50
Values in Uninfected Mice

[2] = tested on: Mature S. mansoni, Puerto Rican/Michigan strain; assay: Primary screen in mice, single oral doses, mature S. mansoni infection (Puerto Rican/Michigan strain); format: in vivo
Excerpt: (§1) The compounds of the invention are useful in the treatment of schistosomiasis. Compounds of this invention, when placed in the primary screen in mice described in Am. J. Trop.
(§2) Effects of Single Oral Doses (Aqueous Solutions ) of 2-Chloro-
(§3) 4-(4-alkyl-1-piperazinyl)benzenemethanol, N^ω -oxides Against
(§4) Mature S. mansoni Infections in Mice

[3] = tested on: Salmonella typhimurium TA-100; format: cell-based
Excerpt: The compounds of this invention have the specific advantage over the corresponding des-N-oxide compounds in that the compounds are non-mutagenic in a test designed to determine mutagenicity which is described in J. Pharm. Exp. Therap., 200, 1 (1977).
Mutagenic Activity Using Salmonella typhimurium (TA-98 and TA-100)

[4] = tested on: Mature S. mansoni, St. Lucian strain; assay: Primary screen in mice, single oral doses, mature S. mansoni infection (St. Lucian strain); format: in vivo
Excerpt: as §1, §2, §3, §4

[5] = tested on: Mature S. mansoni (Puerto Rican/Walter Reed Strain); assay: Secondary test in monkeys, mature S. mansoni infection; format: in vivo; conditions: monkeys (Cebus apella), 50 × 4 mg/kg
Excerpt: The preferred compound of the invention, when placed in a secondary test in monkeys described in Am. J. Trop. Med. Hyg. 15, 705 (1966) gave the following data:
Effects of 2-chloro-4-(4-methyl-1-piperazinyl)benzenemethanol,
N^ω -oxide Against Mature S. mansoni (Puerto Rican/Walter Reed
Strain) Infections in Monkeys (Cebus apella)

[6] = tested on: Mature S. mansoni, Puerto Rican/Sterling Winthrop strain; assay: Primary screen in mice, single oral doses, mature S. mansoni infection (Puerto Rican/Sterling Winthrop strain); format: in vivo
Excerpt: as §1, §2, §3, §4

[7] = tested on: Mature S. mansoni, Puerto Rican/Walter Reed strain; assay: Primary screen in mice, single oral doses, mature S. mansoni infection (Puerto Rican/Walter Reed strain); format: in vivo
Excerpt: as §1, §2, §3, §4

[8] = tested on: Mature S. mansoni, Brazilian strain; assay: Primary screen in mice, single oral doses, mature S. mansoni infection (Brazilian strain); format: in vivo
Excerpt: as §1, §2, §3, §4

[9] = tested on: Mature S. mansoni, Liberian strain; assay: Primary screen in mice, single oral doses, mature S. mansoni infection (Liberian strain); format: in vivo
Excerpt: as §1, §2, §3, §4

Compound: CCN1CCN(c2ccc(CO)c(Cl)c2)CC1 [C2 H5 des N-oxide, 2-chloro-4-(4-ethyl-1-piperazinyl)benzenemethanol, reference compound]
- LD50 [1]: 150 mg/kg

Compound: CC[N+]1([O-])CCN(c2ccc(CO)c(Cl)c2)CC1 [C2 H5, 2-chloro-4-(4-ethyl-1-piperazinyl)benzenemethanol, N^ω -oxide]
- % Mice Cured ([2]; single oral dose 75 mg/kg): 71%
- % Reduction Live Worms ([2]; single oral dose 75 mg/kg): 92%
- LD50 [1]: > 250 mg/kg

Compound: CN1CCN(c2ccc(CO)c(Cl)c2)CC1 [CH3 des N-oxide, 2-chloro-4-(4-methyl-1-piperazinyl)benzenemethanol, reference compound]
- Mutagenic activity, Revertants per n mole [3]: 0.1 Revertants per n mole
- LD50 [1]: 200 mg/kg

Compound: C[N+]1([O-])CCN(c2ccc(CO)c(Cl)c2)CC1 [CH3, 2-chloro-4-(4-methyl-1-piperazinyl)benzenemethanol, N^ω -oxide]
- % Mice Cured ([4]; single oral dose 150 mg/kg): 0%
- % Reduction Live Worms ([4]; single oral dose 150 mg/kg): 16%
- Final Egg Count [5]: 0
- % Reduction Live Worms ([5]; N^ω -oxide, 4 mg/kg): 92% and 91%
- % Mice Cured ([6]; single oral dose 40 mg/kg): 33%
- % Reduction Live Worms ([6]; single oral dose 40 mg/kg): 56%
- % Mice Cured ([6]; single oral dose 75 mg/kg): 60%
- % Reduction Live Worms ([6]; single oral dose 75 mg/kg): 69%
- % Mice Cured ([7]; single oral dose 100 mg/kg): 100%
- % Reduction Live Worms ([7]; single oral dose 100 mg/kg): 100%
- % Mice Cured ([8]; single oral dose 20 mg/kg): 0%
- % Reduction Live Worms ([8]; single oral dose 20 mg/kg): 73%
- % Mice Cured ([8]; single oral dose 40 mg/kg): 51%
- % Reduction Live Worms ([8]; single oral dose 40 mg/kg): 88%
- % Mice Cured ([2]; single oral dose 40 mg/kg): 43%
- % Reduction Live Worms ([2]; single oral dose 40 mg/kg): 79%
- % Mice Cured ([2]; single oral dose 75 mg/kg): 52%
- % Reduction Live Worms ([2]; single oral dose 75 mg/kg): 90%
- % Mice Cured ([2]; single oral dose 300 mg/kg): 87%
- % Reduction Live Worms ([2]; single oral dose 300 mg/kg): 99%
- LD50 [1]: 1500 mg/kg
- % Mice Cured ([9]; single oral dose 50 mg/kg): 0%
- % Reduction Live Worms ([9]; single oral dose 50 mg/kg): 25%

Compound: CC(C)N1CCN(c2ccc(CO)c(Cl)c2)CC1 [CH(CH3)2 des N-oxide, 2-chloro-4-[4-(1-methylethyl)-1-piperazinyl]benzenemethanol, reference compound]
- LD50 [1]: 100 mg/kg

Compound: CC(C)[N+]1([O-])CCN(c2ccc(CO)c(Cl)c2)CC1 [CH(CH3)2, 2-chloro-4-[4-(1-methylethyl)-1-piperazinyl]-benzenemethanol, N^ω -oxide]
- % Mice Cured ([4]; single oral dose 40 mg/kg): 0%
- % Reduction Live Worms ([4]; single oral dose 40 mg/kg): 50%
- % Mice Cured ([4]; single oral dose 75 mg/kg): 57%
- % Reduction Live Worms ([4]; single oral dose 75 mg/kg): 75%
- Mutagenic activity, Revertants per n mole [3]: 0.007 Revertants per n mole
- % Mice Cured ([6]; single oral dose 75 mg/kg): 0%
- % Reduction Live Worms ([6]; single oral dose 75 mg/kg): 25%
- % Mice Cured ([7]; single oral dose 40 mg/kg): 75%
- % Reduction Live Worms ([7]; single oral dose 40 mg/kg): 96%
- % Mice Cured ([7]; single oral dose 75 mg/kg): 72%
- % Reduction Live Worms ([7]; single oral dose 75 mg/kg): 85%
- % Mice Cured ([8]; single oral dose 40 mg/kg): 0%
- % Reduction Live Worms ([8]; single oral dose 40 mg/kg): 32%
- % Mice Cured ([2]; single oral dose 40 mg/kg): 19%
- % Reduction Live Worms ([2]; single oral dose 40 mg/kg): 57%
- % Mice Cured ([2]; single oral dose 75 mg/kg): 100%
- % Reduction Live Worms ([2]; single oral dose 75 mg/kg): 100%
- % Mice Cured ([2]; single oral dose 125 mg/kg): 57%
- % Reduction Live Worms ([2]; single oral dose 125 mg/kg): 90%
- LD50 [1]: > 1500 mg/kg
- % Mice Cured ([9]; single oral dose 75 mg/kg): 0%
- % Reduction Live Worms ([9]; single oral dose 75 mg/kg): 42%
- % Mice Cured ([9]; single oral dose 125 mg/kg): 100%
- % Reduction Live Worms ([9]; single oral dose 125 mg/kg): 100%

From US4234583A, “2-Chloro-4-(4-lower alkyl-1-piperazinyl)benzenemethanol, N^ω -oxides and methods for their preparation” (priority 1978, dated 1980)
